One molecule from patent EP0004835A1, “Ethanolamine compounds, processes for their preparation, pharmaceutical preparations containing them and their medicinal use” (priority 1978, dated 1979) can be followed below.

“And” between values parts separate entries of the source, which are not always exact repeats. Equal values may be shown once.

One series concerns the target a-receptor. As to the kind of experiment: a-receptor blocking activity, noradrenaline-induced contraction of rabbit aortic strips. Also noted: species or system Albino rabbits. An excerpt: The a-receptor blocking activity of two compounds of the invention was investigated. This effect is relevant in the treatment of asthma. It has been shown, e.g. by Nousiainen et al, Pharmacology 15, 469-477 (1977), that certain compounds having a-blocking effect may potentiate the effects of S-receptor-stimulating agents such as terbutaline.
In the test, the a-receptor blocking substance thymoxamine was used as reference.
Albino rabbits of both sexes (2-3 kg) were used. About 5 cm of the aorta was dissected out as near the arch as possible, transferred to a dish with Krebs solution and cut spirally. Usually 3 preparations were received from the dissected piece of vessel. Each strip was mounted in an organ bath in Krebs solution of 37°C and aerated with carbogen. The load on the preparation was 2 g and the tension changes recorded isometrically on Grass transducer FR03 and polygraph P5.
Noradrenaline, which is a strong a-receptor stimulating agent, exerts a contracting effect on the aortic strips when added to the bath. The a-receptor blocking effect of the test compound is measured by adding the test compound to the organ bath before adding nor-adrenaline.
Noradrenaline solution with a concentration producing 70-80 % of maximal contraction (0.03-0.06 µg/ml) was used. The test compound was added to the organ bath 10 minutes before the addition of noradrenaline.
The results are measured as the concentration of the test compound which inhibits the noradrenaline-induced contraction by 50 % (EC 50).
The EC 50 values are based on tests on 6 preparations obtained from 3 animals.

In series [1] the test system is electrically induced contractions of the soleus muscle. As to the kind of experiment: Tremorogenic effect in anaesthetized cat (soleus muscle, simultaneous recording). The series is classed as in vivo. As to conditions: narcotized cat, i.v.; based on molar dose giving 30 % decrease of electrically induced soleus contractions; terbutaline = 1; hydrochloride. Here is the method: A. Simultaneous recording of bronchospasmolytic effect, tremorogenic effect and heart stimulating effect
The bronchospasmolytic effect and the tremorogenic effect were measured simultaneously in anaesthetized cat.
The method used is described in detail by 0 A T Olsson, Acta pharmacol et toxicol 34, 106-114 (1974).
Cats weighing 2.5-3.5 kg are anaesthetized with pento- barbital (mebumalum NFN) at first by an intraperitoneal injection (30 mg/kg) and afterwards by continuous intravenous infusion to keep the level of anaesthesia constant during the experiment.
The soleus muscle in the hind limb, consisting mainly a -slow contracting fibres, is prepared essentially according to Bowman & Zaimis, J Physiol 144, 92-107 (1958). The muscle is enclosed in a chamber made of a rubbercovered plastic "hair-curler". The entire leg is wrapped in metal foil covered with plastic to keep the temperature constant at 35-36°C (controlled by thermo couples in the.leg). The cat is placed on its back on a thermostatically controlled operation table and the right hind limb fixed, special care being taken not to impede the blood flow.The tendon is cut and attached to a Grass strain gauge (FT 10C). The isometric tension of the muscle is calibrated to 50 g (resting tension) and 500 g (maximal tension). A plexiglas shielded bipolar Pt-electrode is placed on the tibialis nerve, near the soleus. The incomplete tetanic contractions of the muscle are elicited by a square wave pulse stimulation of the nerve by the use of a Grass S48 stimulator. The pulse duration is 0.05 msec, with frequencies selected in the range 8-12 Hz and the strength between 5-8. volts. The stimulation occurs for 1.8 sec every 20 sec.
The bronchospasmolytic effect is measured as the dose, calculated in moles per kg bodyweight of the test animal, which gives 30 % decrease of the histamine induced bronchospasm. […] The heart stimulating effect is measured as the dose, calculated in moles per kg bodyweight of the test animal, which gives 25 % increase in the heart frequency.

A further series concerns the target rat uterus (Rattus norvegicus, UniProt P10608). As to the kind of experiment: Inhibitory activity on oxytocin and carbachol induced contractions of rat uterus in vitro. Also noted: species or system Sprague-Dawley rats. As to conditions: result in words. Here is the method:
'The uterus relaxing effect of the compounds of the invention was tested. Terbutaline was used as reference substance.
Female Sprague-Dawley rats, 150-200 g, were used. An oestrogen steroid (Estradurin, Leo), 0.25 mg/100 g, was administered s.c. 4-6 days before the experiments to bring the animals in oesterus.
The uterus horn were cut open longitudinally, mounted in organ baths in Locke solution at 33°C and gassed with carbogen. The contraction of the preparation was producted by oxytocin (Partocon, Ferring) or carbachol and given to the bath 3 min after administration of the test substance in a dose producing 70-80 % of the maximum contraction or 0.005-0.02 IE/ml of oxytocin and 0.2-0.6 µg/ml of carbacho- line chloride. The inhibitory effect produced by the test substance was eliminated by propranolol (1 µg/ml or 0.4x10^-5 M given to the bath 15 minutes before the drugs).
The tension changes were recorded isometrically (transducer FP03 and Grass polygraph P5).
The results are given as the concentration of the test compound which reduces the contraction induced by oxytocin and carbachol, respectively, by 50 % (EC 50).
Oxytocinseries: 10 preparations from 6 animals Carbacholseries: 9 preparations from 5 animals

Another series is described as follows: Acute toxicity in mice. As to conditions: mouse, in vivo. Here is the method:
The acute toxicity of the compound D 2343 of the invention was investigated.
Male mice (NMRI) 20-25 g were used. The test compound was administered intravenously (by tail vein), subcutaneously. intraperitoneally and orally (by stomach tube to starved animals) in 6 dose levels in log- sequence with 10 or more animals tested at each dose level to determine the LD50'
After toxic doses the death followed within the first hour after i.v., s.c. and i.p. and during the first three hours after p.o. administration. No further mortality was noted during the following 5 days the animals were observed.

One may read the LD50 as the dose expected to kill half of the subjects tested. A higher LD50 goes with a less toxic substance.

Chain of rat uterus (P10608 whole entry): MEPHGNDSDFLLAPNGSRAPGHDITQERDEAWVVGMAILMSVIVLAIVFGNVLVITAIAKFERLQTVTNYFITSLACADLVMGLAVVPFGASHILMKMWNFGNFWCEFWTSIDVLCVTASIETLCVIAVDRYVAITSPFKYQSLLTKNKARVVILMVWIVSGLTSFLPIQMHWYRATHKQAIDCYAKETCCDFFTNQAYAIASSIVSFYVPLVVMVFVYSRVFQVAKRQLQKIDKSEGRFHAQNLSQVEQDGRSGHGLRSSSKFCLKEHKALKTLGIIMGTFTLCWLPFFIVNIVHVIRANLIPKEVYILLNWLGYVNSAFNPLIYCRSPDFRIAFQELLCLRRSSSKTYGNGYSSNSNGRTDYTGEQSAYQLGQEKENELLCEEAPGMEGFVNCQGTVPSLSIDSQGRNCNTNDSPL

Take `COc1ccccc1CCC(C)(C)NCC(O)c1ccc(O)cc1.Cl` (stereo not shown) [D 2343, 1-(4-hydroxyphenyl)--2-[1,1-dimethyl-3-(2-methoxyphenyl)propylamino]-ethanol hydrochloride]: the IC50 at a-receptor (rabbit aortic strips, compound added 10 minutes before noradrenaline, called EC 50, 6 preparations from 3 animals, read-out: Concentration inhibiting 50 % noradrenaline-induced contraction) was found to be 600 ± 200 nM. For the same molecule, in the series with a-receptor (rabbit aortic strips, result in words), the “a-receptor blocking activity compared with thymoxamine” value is given as “higher than the a-blocking effect of thymoxamine”. For the same molecule, in the series with a-receptor (result in words, no data shown), the “a-blocking effect in relation to β-stimulating effect” value is given as “obtained in the same dose range as its β-stimulating effect”. Further, the “Tremorogenic effect in relation to the tremorogenic effect of terbutaline” value in series [1] was 0.5 and 0.5 ±0.1. Besides, at rat uterus, the “potency as uterus relaxing agent compared with terbutaline” value is recorded as “more potent as uterus relaxing agent than terbutaline”. The LD50 turned out to be 45 mg/kg in the series “Acute toxicity in mice” (ip, male mice (NMRI)); 120 µmol/kg in the series “Acute toxicity in mice” (ip, male mice (NMRI), M = 378.5); 13 mg/kg in “Acute toxicity in mice” (iv, male mice (NMRI)); 35 µmol/kg in the series “Acute toxicity in mice” (iv, male mice (NMRI), M = 378.5); 170 mg/kg in the series “Acute toxicity in mice” (po, starved male mice (NMRI)); 450 µmol/kg in the series “Acute toxicity in mice” (po, starved male mice (NMRI), M = 378.5). In addition, the LD50 in “Acute toxicity in mice” (sc, male mice (NMRI)) turned out to be 50 mg/kg; in the series “Acute toxicity in mice” (sc, male mice (NMRI), M = 378.5) it was 130 µmol/kg.
